# Laboratory results as given in US10189816B2, “Substituted pyridines as inhibitors of human immunodeficiency virus replication” (priority 2015, dated 2019).
# Tested on: NL-RLuc virus
# Assay: Inhibition of HIV replication (NL-RLuc reporter virus in MT-2 cells, luciferase readout)
# Type: cell-based
# Conditions: Human immunodeficiency virus 1, MT2, 120 h, read-out: Activity
# Description: Inhibition of HIV replication: A recombinant NL-RLuc proviral clone was constructed in which a section of the nef gene from NL4-3 was replaced with the Renilla Luciferase gene. This virus is fully infectious and can undergo multiple cycles of replication in cell culture. In addition, the luciferous reporter provides a simple and easy method for quantitating the extent of virus growth and consequently, the antiviral activity of test compounds. The plasmid pNLRLuc contains the proviral NL-Rluc DNA cloned into pUC18 at the PvuII site. The NL-RLuc virus was prepared by transfection of 293T cells with the plasmid pNLRLuc. Transfections were performed using the LipofectAMINE PLUS kit from Invitrogen (Carlsbad, Calif.) according to the manufacturer and the virus generated was titered in MT-2 cells. For susceptibility analyses, the titrated virus was used to infect MT-2 cells in the presence of compound, and after 5 days of incubation, cells were processed and quantitated for virus growth by the amount of expressed luciferase. Assay media was RPMI 1640 supplemented with 10% heat inactivated fetal bovine serum (FBS), 100 units/ml penicillin G/100 units/ml streptomycin, 10 mM HEPES buffer pH 7.55 and 2 mM L-glutamine. The results from at least 2 experiments were used to calculate the EC50 values. Luciferase was quantitated using the Dual Luciferase kit from Promega (Madison, Wis.). Susceptibility of viruses to compounds was determined by incubation in the presence of serial dilutions of the compound. The 50% effective concentration (EC50) was calculated by using the exponential form of the median effect equation where (Fa)=1/[1+(ED50/drug conc.)^m] (Johnson V A, Byington R T. Infectivity Assay. In Techniques in HIV Research. ed. Aldovini A, Walker B D. 71-76. New York: Stockton Press.1990). Activity equal to A refers to a compound having an EC50≤100 nM, while B and C denote compounds having an EC50 between 100 nM and 1 uM (B) or >1 uM (C).
row,SMILES,EC50 [µM]
1,"COc1cc(CN2CCc3cc(-c4c(C)nc(C)c([C@H](OC(C)(C)C)C(=O)O)c4N4CCC(C)(C)CC4)ccc3C2)cc(C(F)(F)F)c1 [Compound 112, (S)-2-(tert-butoxy)-2-(4-(4,4-dimethylpiperidin-1-yl)-5-(2-(3-methoxy-5-(trifluoromethyl)benzyl)-1,2,3,4-tetrahydroisoquinolin-6-yl)-2,6-dimethylpyridin-3-yl)acetic acid]",< 0.1
2,"Cc1nc(C)c([C@H](OC(C)(C)C)C(=O)O)c(N2CCC(C)(C)CC2)c1-c1ccc2c(c1)CCN(Cc1cccc(OC(F)(F)F)c1)C2 [Compound 110, (S)-2-(tert-butoxy)-2-(4-(4,4-dimethylpiperidin-1-yl)-2,6-dimethyl-5-(2-(3-(trifluoromethoxy)benzyl)-1,2,3,4-tetrahydroisoquinolin-6-yl)pyridin-3-yl)acetic acid]",< 0.1
3,"Cc1cccc(CN2CCc3cc(-c4c(C)nc(C)c([C@H](OC(C)(C)C)C(=O)O)c4N4CCC(C)(C)CC4)ccc3C2)c1F [Compound 54, (S)-2-(tert-butoxy)-2-(4-(4,4-dimethylpiperidin-1-yl)-5-(2-(2-fluoro-3-methylbenzyl)-1,2,3,4-tetrahydroisoquinolin-6-yl)-2,6-dimethylpyridin-3-yl)acetic acid]",< 0.1
4,"Cc1nc(C)c([C@H](OC(C)(C)C)C(=O)O)c(N2CCC(C)(C)CC2)c1-c1ccc2c(c1)CCN(Cc1c(O)cc(F)cc1F)C2 [Compound 144, (S)-2-(tert-butoxy)-2-(5-(2-(2,4-difluoro-6-hydroxybenzyl)-1,2,3,4-tetrahydroisoquinolin-6-yl)-4-(4,4-dimethylpiperidin-1-yl)-2,6-dimethylpyridin-3-yl)acetic acid]",< 0.1
5,"Cc1nc(C)c([C@H](OC(C)(C)C)C(=O)O)c(N2CCC(C)(C)CC2)c1-c1ccc2c(c1)CCN(Cc1ccc(F)cc1F)C2 [Compound 20, (S)-2-(tert-butoxy)-2-(5-(2-(2,4-difluorobenzyl)-1,2,3,4-tetrahydroisoquinolin-6-yl)-4-(4,4-dimethylpiperidin-1-yl)-2,6-dimethylpyridin-3-yl)acetic acid]",< 0.1
6,"Cc1nc(C)c([C@H](OC(C)(C)C)C(=O)O)c(N2CCC(C)(C)CC2)c1-c1ccc2c(c1)CCN(Cc1ccc(F)cc1)C2 [Compound 1, (S)-2-(tert-butoxy)-2-(4-(4,4-dimethylpiperidin-1-yl)-5-(2-(4-fluorobenzyl)-1,2,3,4-tetrahydroisoquinolin-6-yl)-2,6-dimethylpyridin-3-yl)acetic acid]",< 0.1
7,"Cc1nc(C)c([C@H](OC(C)(C)C)C(=O)O)c(N2CCC(C)(C)CC2)c1-c1ccc2c(c1)CCN(Cc1cc(Cl)cc(Cl)c1OCc1ccccc1)C2 [Compound 85, (S)-2-(5-(2-(2-(benzyloxy)-3,5-dichlorobenzyl)-1,2,3,4-tetrahydroisoquinolin-6-yl)-4-(4,4-dimethylpiperidin-1-yl)-2,6-dimethylpyridin-3-yl)-2-(tert-butoxy)acetic acid]",< 0.1
8,"Cc1nc(C)c([C@H](OC(C)(C)C)C(=O)O)c(N2CCC(C)(C)CC2)c1-c1ccc2c(c1)CCN(Cc1cccc(C#N)c1)C2 [Compound 61, (S)-2-(tert-butoxy)-2-(5-(2-(3-cyanobenzyl)-1,2,3,4-tetrahydroisoquinolin-6-yl)-4-(4,4-dimethylpiperidin-1-yl)-2,6-dimethylpyridin-3-yl)acetic acid]",< 0.1
9,"Cc1cc(C)c(CN2CCc3cc(-c4c(C)nc(C)c([C@H](OC(C)(C)C)C(=O)O)c4N4CCC(C)(C)CC4)ccc3C2)c(C)c1 [Compound 57, (S)-2-(tert-butoxy)-2-(4-(4,4-dimethylpiperidin-1-yl)-2,6-dimethyl-5-(2-(2,4,6-trimethylbenzyl)-1,2,3,4-tetrahydroisoquinolin-6-yl)pyridin-3-yl)acetic acid]",< 0.1
10,"Cc1nc(C)c([C@H](OC(C)(C)C)C(=O)O)c(N2CCC(C)(C)CC2)c1-c1ccc2c(c1)CCN(Cc1ccc(OC(F)F)c(OC(F)F)c1)C2 [Compound 157, (S)-2-(5-(2-(3,4-bis(difluoromethoxy)benzyl)-1,2,3,4-tetrahydroisoquinolin-6-yl)-4-(4,4-dimethylpiperidin-1-yl)-2,6-dimethylpyridin-3-yl)-2-(tert-butoxy)acetic acid]",< 0.1
11,"Cc1nc(C)c([C@H](OC(C)(C)C)C(=O)O)c(N2CCC(C)(C)CC2)c1-c1ccc2c(c1)CCN(Cc1cccc(Cl)c1)C2 [Compound 28, (S)-2-(tert-butoxy)-2-(5-(2-(3-chlorobenzyl)-1,2,3,4-tetrahydroisoquinolin-6-yl)-4-(4,4-dimethylpiperidin-1-yl)-2,6-dimethylpyridin-3-yl)acetic acid]",< 0.1
12,"Cc1ccc(F)c(CN2CCc3cc(-c4c(C)nc(C)c([C@H](OC(C)(C)C)C(=O)O)c4N4CCC(C)(C)CC4)ccc3C2)c1 [Compound 74, (S)-2-(tert-butoxy)-2-(4-(4,4-dimethylpiperidin-1-yl)-5-(2-(2-fluoro-5-methylbenzyl)-1,2,3,4-tetrahydroisoquinolin-6-yl)-2,6-dimethylpyridin-3-yl)acetic acid]",< 0.1
13,"Cc1nc(C)c([C@H](OC(C)(C)C)C(=O)O)c(N2CCC(C)(C)CC2)c1-c1ccc2c(c1)CCN(Cc1c(F)cccc1Cl)C2 [Compound 136, (S)-2-(tert-butoxy)-2-(5-(2-(2-chloro-6-fluorobenzyl)-1,2,3,4-tetrahydroisoquinolin-6-yl)-4-(4,4-dimethylpiperidin-1-yl)-2,6-dimethylpyridin-3-yl)acetic acid]",< 0.1
14,"Cc1nc(C)c([C@H](OC(C)(C)C)C(=O)O)c(N2CCC(C)(C)CC2)c1-c1ccc2c(c1)CCN(Cc1cccc(C(C)C)c1)C2 [Compound 36, (S)-2-(tert-butoxy)-2-(4-(4,4-dimethylpiperidin-1-yl)-5-(2-(3-isopropylbenzyl)-1,2,3,4-tetrahydroisoquinolin-6-yl)-2,6-dimethylpyridin-3-yl)acetic acid]",< 0.1
15,"Cc1nc(C)c([C@H](OC(C)(C)C)C(=O)O)c(N2CCC(C)(C)CC2)c1-c1ccc2c(c1)CCN(Cc1ccc(Cl)c(F)c1)C2 [Compound 22, (S)-2-(tert-butoxy)-2-(5-(2-(4-chloro-3-fluorobenzyl)-1,2,3,4-tetrahydroisoquinolin-6-yl)-4-(4,4-dimethylpiperidin-1-yl)-2,6-dimethylpyridin-3-yl)acetic acid]",< 0.1
16,"Cc1nc(C)c([C@H](OC(C)(C)C)C(=O)O)c(N2CCC(C)(C)CC2)c1-c1ccc2c(c1)CCN(Cc1ccccc1C(C)C)C2 [Compound 77, (S)-2-(tert-butoxy)-2-(4-(4,4-dimethylpiperidin-1-yl)-5-(2-(2-isopropylbenzyl)-1,2,3,4-tetrahydroisoquinolin-6-yl)-2,6-dimethylpyridin-3-yl)acetic acid]",< 0.1
17,"Cc1nc(C)c([C@H](OC(C)(C)C)C(=O)O)c(N2CCC(C)(C)CC2)c1-c1ccc2c(c1)CCN(Cc1cc(Cl)cc(OC(F)(F)F)c1)C2 [Compound 113, (S)-2-(tert-butoxy)-2-(5-(2-(3-chloro-5-(trifluoromethoxy)benzyl)-1,2,3,4-tetrahydroisoquinolin-6-yl)-4-(4,4-dimethylpiperidin-1-yl)-2,6-dimethylpyridin-3-yl)acetic acid]",< 0.1
18,"CCOc1ccc(CN2CCc3cc(-c4c(C)nc(C)c([C@H](OC(C)(C)C)C(=O)O)c4N4CCC(C)(C)CC4)ccc3C2)cc1 [Compound 149, (S)-2-(tert-butoxy)-2-(4-(4,4-dimethylpiperidin-1-yl)-5-(2-(4-ethoxybenzyl)-1,2,3,4-tetrahydroisoquinolin-6-yl)-2,6-dimethylpyridin-3-yl)acetic acid]",< 0.1
19,"Cc1nc(C)c([C@H](OC(C)(C)C)C(=O)O)c(N2CCC(C)(C)CC2)c1-c1ccc2c(c1)CCN(Cc1cc(Cl)cc(Cl)c1)C2 [Compound 26, (S)-2-(tert-butoxy)-2-(5-(2-(3,5-dichlorobenzyl)-1,2,3,4-tetrahydroisoquinolin-6-yl)-4-(4,4-dimethylpiperidin-1-yl)-2,6-dimethylpyridin-3-yl)acetic acid]",< 0.1
20,"COc1c(F)cccc1CN1CCc2cc(-c3c(C)nc(C)c([C@H](OC(C)(C)C)C(=O)O)c3N3CCC(C)(C)CC3)ccc2C1 [Compound 142, (S)-2-(tert-butoxy)-2-(4-(4,4-dimethylpiperidin-1-yl)-5-(2-(3-fluoro-2-methoxybenzyl)-1,2,3,4-tetrahydroisoquinolin-6-yl)-2,6-dimethylpyridin-3-yl)acetic acid]",< 0.1
21,"Cc1nc(C)c([C@H](OC(C)(C)C)C(=O)O)c(N2CCC(C)(C)CC2)c1-c1ccc2c(c1)CCN(Cc1ccc(OC(F)(F)F)c(F)c1)C2 [Compound 108, (S)-2-(tert-butoxy)-2-(4-(4,4-dimethylpiperidin-1-yl)-5-(2-(3-fluoro-4-(trifluoromethoxy)benzyl)-1,2,3,4-tetrahydroisoquinolin-6-yl)-2,6-dimethylpyridin-3-yl)acetic acid]",< 0.1

# Same assay, conditions: Human immunodeficiency virus 1, MT2, 120 h, read-out: EC50 μM
row,SMILES,EC50 [µM]
1,"Cc1nc(C)c([C@H](OC(C)(C)C)C(=O)O)c(N2CCC(C)(C)CC2)c1-c1ccc2c(c1)CCN(Cc1cccc(OC(F)(F)F)c1)C2 [Compound 110, (S)-2-(tert-butoxy)-2-(4-(4,4-dimethylpiperidin-1-yl)-2,6-dimethyl-5-(2-(3-(trifluoromethoxy)benzyl)-1,2,3,4-tetrahydroisoquinolin-6-yl)pyridin-3-yl)acetic acid]",0.008
2,"Cc1nc(C)c([C@H](OC(C)(C)C)C(=O)O)c(N2CCC(C)(C)CC2)c1-c1ccc2c(c1)CCN(Cc1c(O)cc(F)cc1F)C2 [Compound 144, (S)-2-(tert-butoxy)-2-(5-(2-(2,4-difluoro-6-hydroxybenzyl)-1,2,3,4-tetrahydroisoquinolin-6-yl)-4-(4,4-dimethylpiperidin-1-yl)-2,6-dimethylpyridin-3-yl)acetic acid]",0.008
3,"Cc1nc(C)c([C@H](OC(C)(C)C)C(=O)O)c(N2CCC(C)(C)CC2)c1-c1ccc2c(c1)CCN(Cc1ccc(F)cc1)C2 [Compound 1, (S)-2-(tert-butoxy)-2-(4-(4,4-dimethylpiperidin-1-yl)-5-(2-(4-fluorobenzyl)-1,2,3,4-tetrahydroisoquinolin-6-yl)-2,6-dimethylpyridin-3-yl)acetic acid]",0.006
